Results: PMC6155239, “Targeting PFKFB3 radiosensitizes cancer cells and suppresses homologous recombination” (Nature Communications, 2018)
Entries after “also recorded” stand apart in the source; their conditions may differ.

Experiments:
[1] = molecular target: PFKFB3 (Homo sapiens, UniProt Q16875); test: ADP-Glo kinase activity assay, PFKFB3; type: biochemical; conditions: in vitro enzymatic assay
Method: The kinase activity of the bi-functional enzyme was quantified based on the production of ADP and F-2,6-P2 from ATP by ADP-GloTM Kinase Assay (Promega). The assay was performed in two steps; first, after the kinase reaction, an equal volume of ADP-GloTM Reagent was added to terminate the kinase reaction and deplete the remaining ATP. Second, the Kinase Detection Reagent was added to simultaneously convert ADP to ATP and allow the newly synthesized ATP to be measured using a luciferase/luciferin reaction. The light generated was measured using a luminescence counter (1450 MicroBeta TriLux). The assay was performed in white 384-well plates (OptiPlate, 6007299, PerkinElmer) by consecutive additions of a test compound solution (0.1 µL, serial diluted in DMSO from compound DMSO stock solution and dispensed by acoustic dispensing from UV-star 384-well plate 7360153, VWR), enzyme solution (5 µL) and substrate (fructose-6-phosphate (F6P) and adenosine-5′-triphosphate (ATP)) containing solution (5 µL). […] Four reference dose–response curves, one of them being the QC compound, were included and serial diluted as the test compounds. The final concentrations of all reagents per well were 50 mM Tris–HCl at pH 8.0, 10 mM MgCl2, 5 mM NaPi at pH 8.0, 81.48 nM PFKFB3 or 145 nM PFKFB4, 8 µM ATP, 100 µM F6P (acid treated and then neutralized to remove any contaminating F-2,6-P2[34]), 0.005% Tween-20 and 1 mM dithiothreitol. Enzyme, compounds, and controls were pre-incubated at room temperature for 15 min before the addition of substrate solution. The enzymatic reaction was allowed to proceed for 20 min and the reaction was terminated by the addition of ADP-GloTM Reagent (10 µL) to all wells followed by 40 min incubation at room temperature. […] The inhibitory potency or IC50 values of test compounds on the kinase activity of the enzymes were calculated using a four-parameter model (model 205) in XLfit (IDBS ActivityBase XE Runner).

[2] = test system: U2OS cells; test: IR-induced RAD51 / RPA32 foci, confocal; type: cell-based; conditions: in combination with IR
Method: (§1) Cells were grown on sterilized coverslips and fixed with 4% paraformaldehyde (PFA) (Santa Cruz) and 2% sucrose (Sigma Aldrich) for 15 min at room temperature. They were then permeabilized with 0.2% NP-40 (Thermo Scientific) for 10 min at room temperature followed by 30 min of blocking in blocking buffer (2 or 3% BSA, 5% glycerol, 0.1% Tween 20 (Sigma Aldrich)). Coverslips were subsequently incubated for 1, 2, or 24 h in primary antibody and 40 min in secondary antibody diluted in blocking buffer, DNA was stained with DAPI for 10 min. The coverslips were mounted with Prolonged Gold mounting medium (Invitrogen). Images were acquired with a Zeiss LSM 780 microscope using a 40× or 63× oil immersion lens and processed in ImageJ and CellProfiler.
To visualize PFKFB3, RPA32, RAD51, BRCA1, 53BP1, and RRM2 IRIF, the cells were first washed with PBS and then incubated for 5 min at room temperature with cytoskeleton (CSK) buffer containing 10 mM PIPES pH 7.0 (Sigma Aldrich), 100 mM NaCl (EMD Millipore), 300 mM sucrose (Sigma Aldrich), 3 mM MgCl2 (Sigma Aldrich), and 0.7% Triton X-100 (Sigma Aldrich). After these treatments, the cells were washed once again with PBS and then fixed in 4% PFA with 2% sucrose.

[3] = test system: U2OS DR-GFP cells; test: DR-GFP (HR) assay; type: cell-based
Method: 5 × 10^4 U2OS (DR-GFP) cells were seeded into 12-well plates, 24 h later cells were treated with the indicated siRNAs or inhibitors and, 24 h later, transfected with 150 ng of an I-SceI vector using JetPEI or JetPRIME (Polyplus transfections). The next day, the medium was changed; 24 h after this, cells were harvested by trypsinization and washed with PBS, and the GFP signal was measured by flow cytometry on a FACS Navios (as described above). The frequency of repair in cells treated with inhibitors or transfected with the various siRNAs was calculated relative to cells treated with DMSO or transfected with control siRNA.

[4] = test system: U2OS cells; test: Cell cycle analysis (propidium iodide, flow cytometry); type: cell-based; conditions: 24 h post-IR
Method: For cell cycle analysis, cells were treated or transfected with siRNA as described and harvested at the indicated time points with trypsin. For studies using IR, cells were exposed to IR with 2 Gy, and harvested at the indicated time points with trypsin. The cells were washed in PBS and fixed with 70% ethanol in PBS at 4 °C for 1 h and then stored at −20 °C until staining. Ethanol was removed by centrifugation and cells were then washed in PBS before staining DNA with propidium iodide (PI) solution containing 40 μg/mL PI, 100 μg/mL RNase A, and 0.1% Triton X-100 (Sigma Aldrich). Cells were analyzed by flow cytometry on a FACS Navios (Beckman Coulter) using Kaluza software.

[5] = test system: U2OS cells; test: IR-induced nuclear recruitment of PFKFB3; type: cell-based; conditions: 2 h prior to IR
Method: as §1

[6] = test system: U2OS cells; test: IR-induced Mre11 / Nbs1 foci formation; type: cell-based; conditions: treatment prior to IR (6 Gy, 2 h recovery)
Method: as §1

Sequence of PFKFB3 (Q16875 whole entry): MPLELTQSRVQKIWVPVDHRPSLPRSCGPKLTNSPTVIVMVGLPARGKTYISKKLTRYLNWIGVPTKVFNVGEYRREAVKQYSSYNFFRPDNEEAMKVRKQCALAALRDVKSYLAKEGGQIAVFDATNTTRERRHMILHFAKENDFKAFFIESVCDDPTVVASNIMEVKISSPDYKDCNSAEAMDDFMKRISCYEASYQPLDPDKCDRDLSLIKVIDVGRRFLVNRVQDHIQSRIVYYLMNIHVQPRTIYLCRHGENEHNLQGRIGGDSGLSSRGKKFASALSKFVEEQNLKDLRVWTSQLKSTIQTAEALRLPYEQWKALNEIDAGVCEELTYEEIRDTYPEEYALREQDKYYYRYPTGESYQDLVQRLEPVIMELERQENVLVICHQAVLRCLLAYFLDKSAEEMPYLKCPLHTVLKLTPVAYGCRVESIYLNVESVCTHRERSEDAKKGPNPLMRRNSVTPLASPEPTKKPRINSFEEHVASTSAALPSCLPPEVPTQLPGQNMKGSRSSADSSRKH

| Structure (SMILES) | inhibition of recombinant PFKFB3 kinase activity (in words) [1] | IR-induced recruitment of RPA32 and RAD51 into repair foci (in words) [2] | effect on HR activity (in words) [3] | accumulation of cells in G2/M phase upon IR (in words) [4] | IR-induced recruitment of PFKFB3 (in words) [5] | IR-induced Mre11 or Nbs1 foci formation (in words) [6] |
| --- | --- | --- | --- | --- | --- | --- |
| O=C(C=Cc1cccnc1)c1ccncc1 [3-PO, 3-(3-pyridinyl)-1-(4-pyridinyl)-2-propen-1-one, reference compound] | could not achieve an IC50 value | unaffected | did not decrease HR activity; also recorded: without affecting HR activity | not seen |  |  |
| N=C1NC(=O)/C(=C/c2ccc(O)cc2)S1 [Mirin, reference compound] |  |  |  |  | blocked | completely blocked |
